The source of these data is US20110209699A1, “COMBINATION OF DEHYDROEPIANDROSTERONE OR DEHYDROEPIANDROSTERONE-SULFATE WITH A LIPOXYGENASE INHIBITOR FOR TREATMENT OF ASTHMA OR CHRONIC OBSTRUCTIVE PULMONARY DISEASE” (priority 2003, published 2011).

In one series the test system is Intracellular adenosine. Kind of series: In vivo effect on adenosine levels in various rat tissues. Further details: species or system Fischer 344 rats. The note with it: for Intracellular adenosine (nmols)/mg protein, Brain: rat brain, control 0.5 ± 0.04. The protocol:
Folinic acid (50 mg/kg) was administered intraperitoneally once daily for fourteen days. […] Hearts were removed from animals and flash frozen in liquid nitrogen with 10 s of death. Liver and lungs were removed en bloc and flash frozen with 30 s of death. Brain tissue was subsequently dissected.

Series [1] can be described thus: HPLC analysis of drug degradation during jet milling micronization. Format: physicochemical. Particulars: single and double pass jet-milled powder vs unmilled standard, HPLC peak area. The protocol:
Approximately 1 g sample was passed through the jet mill, once, and approximately 2 g sample were passed through the jet mill twice. […] The resulting solution was sonicated for 3 minutes and appeared fully dispersed. The dispersed solutions were tested on a Malvern Mastersizer X with a small volume sampler (SVS) attachment. One sample of dispersed material was tested 5 times. The median particle size or D (v, 0.5) of unmilled material was 52.56 μm and the % RSD (relative standard deviation) was 7.61 for the 5 values. The D (v, 0.5) for a single pass through the jet mill was 3.90 μm and the % RSD was 1.27, and the D (v, 0.5) from a double pass through the jet mill 3.25 μm and the % RSD was 3.10.
Two vials (A; single-pass; 150 mg) and (B double-pass; 600 mg) of the micronized drug were available for determining drug degradation during jet milling micronization. […] The chromatographic peak area for the HPLC assay of the unmilled drug standard solution (10 mg/ml) gave a value of 23,427. […] The chromatographic peak areas for vials A and B were 11,979 and 11,677, respectively.

The subject of series [2] is HT-29 SF cells. Kind of series: Reversal of DHEA effect on cell cycle. Format: cell-based, human. The note with it: 25 μM DHEA.
The subject of series [3] is HT-29 SF cells. Kind of series: Reversal of DHEA-mediated growth inhibition. Particulars: 25 μM DHEA, 48 hour treatment; MVA 2 μM, SQ 80 μM, CH 15 μg/ml, RN 30 μM each, DN 20 μM each. It is filed as cell-based, human.
Series [4] in a line: Solubility of DHEA-S as a function of NaCl concentration and temperature. Format: physicochemical. The note with it: for equilibrium constant Ksp=[DHEA-S-][Na+]: slope of solubility vs reciprocal sodium concentration. An excerpt: Inhalation of pure water can produce a cough stimulus. […] The temperature effect is weaker at high NaCl concentrations.
Series [5] relates to HT-29 SF cells. Put plainly: DHEA effect on cell cycle (flow cytometry). The note with it: 25, 50 or 200 μM; 24, 48, 72 hours; propidium iodide DNA content. Format: cell-based, human. (In general: In flow cytometry, cells or beads pass a laser one at a time.)
The test system of series [6] is HT-29 SF cells. Put plainly: DHEA effect on cell growth (Coulter counter). The note with it: 0, 12.5, 25, 50 or 200 μM; cell number at 0, 24, 48, 72 hours.
Protocol: Cell cultures, HT-29 SF cells, which represent a subline of HY-29 cells (ATCC, Rockville, Md.) and are adapted for growth in completely defined serum-free PC-1 medium (Ventrex, Portland, Me.), were obtained. Stock cultures were maintained in this medium at 37° C. (in a humidified atmosphere containing 5% CO2).
The nature of series [7]: Physicochemical testing before and after micronization. Particulars: for Particle size (D50%): laser diffraction; for Water (% w/w): Karl Fischer. The procedure:
Surface area is determined using five point BET analyses are performed with nitrogen as the adsorbing gas (P/Po=0.05 to 0.30) using a Micromeritics TriStar surface area analyzer. Particle size distributions are measured by laser diffraction using a Micromeritics Saturn Digisizer where the particles are suspended in mineral oil with sodium dioctyl sodium sulfosuccinate as a dispersing agent. Drug substance water content is measured by Karl Fischer titration (Schott Titroline KF). Pure water is used as the standard and all relative standard deviations for triplicates are less than 1%. Powder is added directly to the titration media.

Series [8] in a line: Short-term solution stability of nebulizer formulation. Format: physicochemical. Particulars: 10 mg/mL in 0.12% NaCl, clear glass vials. The procedure: Aliquots of this solution are filled into clear glass vials and stored at RT (24-26° C.) and at 40° C. The samples are checked daily for DHEA-S content, DHEA content, and appearance. For each time point, duplicate samples are withdrawn and diluted from each vial. […] The study is stopped on day three. […] The solution should easily be stable for the day of reconstitution in a clinical trial. The following section describes the aerosol properties of this formulation.

Series [9] relates to rat peritoneal mast cells. Put plainly: Mast cell degranulation (histamine secretion) after compound 48/80. Format: cell-based. Particulars: at 0.1 uM; 0.1 μg/ml compound 48/80; 2 min at 37° C. The text has this: Leukotrienes are synthesized—though not exclusively by the mast cell (Gilchrist, M., McCauley, S. D., & Befus, A. D. (2004) Expression, localization, and regulation of NOS in human mast cell lines: effects on leukotriene production. Blood 104, 462-469). We determined whether DHEA-sulfate would reduce mast cell degranulation after stimulation with compound 48/80 in rat peritoneal mast cells. Mast cell degranulation was quantified by measurement of histamine, another substance contained within the secretory granules of mast cells. The release of histamine is believed to parallel the release of leukotrienes.
Freshly isolated rat peritoneal mast cells (2×10^5 cells) were pre-incubated for 5 min at 37° C. in a Balanced Salt Solution containing 150 mM NaCl (pH 7.4), 2.7 mM KCl, 0.9 mM CaCl2, 4 mM Na2HPO4, 2.7 mM KH2PO4, 1.75 mg/ml BSA and 0.1 μg/ml compound 48/80.
Following incubation, the mixture is cooled to 4° C. then centrifuged at 4500 rpm for 5 min. The supernatant is collected and mixed for 30 min at 4° C. with 5% TCA (trichloroacetic acid) to cause protein precipitation. […]
The amount of secreted histamine is quantified by measuring the fluorescence intensity at λex=360 nm and λem=450 nm using a spectrofluorimeter (GeminiXS, Molecular Devices). The results are expressed as a percent inhibition of control histamine secretion.

Setting [10] is: calculated for 20 mM Na+ (0.12% NaCl), Ksp 1316 mM^2, 15° C.

In the case of `Nc1nc(=O)c2c([nH]1)NCC(CNc1ccc(C(=O)N[C@@H](CCC(=O)O)C(=O)O)cc1)N2C=O` (mixture of isomers) [Folinic Acid], the “Intracellular adenosine (nmols)/mg protein, Brain” value with Intracellular adenosine (once daily 14 days, DHEA 300 mg/kg or methyltestosterone 40 mg/kg by gavage, folinic acid 50 mg/kg i.p., alone or combined, mean ± SEM) came to 0.72 ± 0.09 nmols/mg protein. Further, in the series on Intracellular adenosine (rat heart, once daily 14 days, DHEA 300 mg/kg or methyltestosterone 40 mg/kg by gavage, folinic acid 50 mg/kg i.p., alone or combined, mean ± SEM, control 10.6 ± 0.6), the “Intracellular adenosine (nmols)/mg protein, Heart” value (shortened to “Intracellular adenosine … Heart”) is reported as 12.4 ± 2.1 nmols/mg protein. Further, the “Intracellular adenosine (nmols)/mg protein, Liver” value in the series on Intracellular adenosine (rat liver, once daily 14 days, DHEA 300 mg/kg or methyltestosterone 40 mg/kg by gavage, folinic acid 50 mg/kg i.p., alone or combined, mean ± SEM, control 14.5 ± 1.0) is given as 16.4 ± 2.4 nmols/mg protein. The “adenosine levels when administered alone” value in the series with Intracellular adenosine (rat, in vivo) was “increase in adenosine levels for all organs studied”. Further, the “effect of coadministration on steroid-mediated adenosine depletion” value in the series on Intracellular adenosine (rats, folinic acid 50 mg/kg i.p. with DHEA or methyltestosterone, 14 days) is “completely abrogated steroid-mediated adenosine depletion”.

Turning to `C[C@]12CC[C@H](OS(=O)(=O)[O-])CC1=CC[C@@H]1[C@@H]2CC[C@]2(C)C(=O)CC[C@@H]12.[Na+]` [Anhydrous DHEA-S], the “drug degradation during jet milling micronization” value in series [1] is on record as “no detectable degradation”.

`CC(C)CCC[C@@H](C)[C@H]1CC[C@H]2[C@@H]3CC=C4C[C@@H](O)CC[C@]4(C)[C@H]3CC[C@]12C` [CH, cholesterol]: the “prevention of DHEA-induced S phase depletion by medium supplement” value is listed as “very little effect” with HT-29 SF cells [2] (48 hours) and “no effect” with HT-29 SF cells [2] (72 hours). In the series on HT-29 SF cells [3], the “reversal of DHEA-induced growth inhibition by medium supplement” value is on record as “no such effect”.

Turning to `C[C@]12CC[C@H](O)CC1=CC[C@@H]1[C@@H]2CC[C@]2(C)C(=O)CC[C@@H]12` [DHEA, 3β-hydroxyandrost-5-en-17-one], in series [4] (water), the solubility in water result was “insoluble”. In the series on HT-29 SF cells [5], the “effect on cell cycle distribution” value was “G1 block in HT-29 SF cells in a time- and dose-dependent manner”. In the series on Intracellular adenosine (rat, in vivo), the “Intracellular adenosine … Heart” value stood at 6.7 ± 0.5. Further, the inhibition of growth entry with HT-29 SF cells [6] was “time- and dose-dependent inhibition of growth”.

On to `CC12CCC3C(CC=C4CC(OS(=O)(=O)[O-])CCC43C)C1CCC2=O.[Na+]` (stereo not drawn) [DHEA-S dihydrate], for which the “Particle size (D50%)” value came to 31 microns in series [7] (Bulk, before micronization) and 3.7 microns in series [7] (Micronized (jet mill)). Further, the entries for the “Water (% w/w)” value in series [7] (Bulk) and in series [7] (Micronized) were 8.5 % w/w and 8.4 % w/w, respectively. In series [7] (Micronized, five point BET), the “Surface area (m^2/g)” value is on record as 4.9 m^2/g.

As for `C[C@]12CC[C@H](OS(=O)(=O)[O-])CC1=CC[C@@H]1[C@@H]2CC[C@]2(C)C(=O)CC[C@@H]12.[Na+]` [DHEA-S, sodium dehydroepiandrostenone sulfate], the “solution appearance on storage” value in series [8] (40° C.) was “became cloudy after two days of storage”; in series [8] (RT (24-26° C.)), “slight precipitate is observed on the third day”. For the same compound, the “equilibrium constant Ksp=[DHEA-S-][Na+]” value was found to be 2236 mM^2 in series [4] (RT (24-25° C.)) and 665 mM^2 in [4] (refrigerated (7-8° C.)). Also, in [4] (setting [10]), the “estimated DHEA-S solution concentration” value was 10.7 mg/mL. The “estimated DHEA-S- solution concentration” value in series [4] (setting [10]) is given as 27.5 mM. For the same compound, the “maximal effect, percent inhibition of control histamine secretion” value in [9] amounted to 69.9%.

With `C[C@@](O)(CCO)CC(=O)O` [MVA, mevalonic acid], the “prevention of DHEA-induced S phase depletion by medium supplement” value in the series on HT-29 SF cells [2] (48 hours) is listed as “partially prevented this effect”; in the series with HT-29 SF cells [2] (72 hours) it was “not after 72 hours”. Besides, the “reversal of DHEA-induced growth inhibition by medium supplement” value in the series with HT-29 SF cells [3] is on record as “partially overcome”.

For the compound `C[C@]12CCC(=O)C=C1CC[C@@H]1[C@@H]2CC[C@@]2(C)[C@H]1CC[C@]2(C)O` [Methyltestosterone], in the series with Intracellular adenosine (methyltestosterone 120 mg/kg, alone or + folinic acid 50 mg/kg, mean ± SEM), the “Intracellular adenosine (nmols)/mg protein, Brain” value was found to be 0.32 ± 0.03 nmols/mg protein. In addition, the “Intracellular adenosine … Heart” value in the series on Intracellular adenosine (rat heart, methyltestosterone 120 mg/kg, alone or + folinic acid 50 mg/kg, mean ± SEM, control 10.6 ± 0.6) was determined as 6.0 ± 0.4 nmols/mg protein. Further, the “Intracellular adenosine (nmols)/mg protein, Liver” value came out at 5.1 ± 0.5 nmols/mg protein in the series on Intracellular adenosine (rat liver, methyltestosterone 120 mg/kg, mean ± SEM, control 14.5 ± 1.0) and 16.5 ± 0.9 nmols/mg protein in the series with Intracellular adenosine (rat, in vivo).

`CC(C)=CCC/C(C)=C/CC/C(C)=C/CC/C=C(\C)CC/C=C(\C)CCC=C(C)C` [SQ, squalene]: the “reversal of DHEA-induced growth inhibition by medium supplement” value in the series on HT-29 SF cells [3] is “no such effect”.
